Measurements published in US9029337B2, “Modulation of factor 7 expression” (Isis Pharmaceuticals, Inc., priority 2007, dated 2015).
Strand notation (5' to 3'): a small letter for the sugar, then the base; units joined by * are phosphorothioate-linked, units joined directly phosphodiester-linked; [ ] holds rarer units or linkages, { } end groups; capitals alone tell only the bases. e = 2'-O-(2-methoxyethyl) (MOE); [5mC] = 5-methylcytosine; d = 2'-deoxy (DNA)

System: human Factor 7 mRNA
Assay: Dose-dependent antisense inhibition of human Factor 7 in HepB3 cells, electroporation
Format: cell-based
Details: 3.125 μM, approx. 16 hours (Table 15, Example 7)
Description: (§1) The gapmers were also transfected via electroporation and their dose-dependent inhibition of human Factor 7 mRNA was measured. Cells were plated at a density of 20,000 cells per well and transfected via electroporation with 3.125 μM, 6.25 μM, 12.5 μM, 25 μM, 50 μM, and 100 μM concentrations of antisense oligonucleotide, as specified in Table 15. After a treatment period of approximately 16 hours, RNA was isolated from the cells and Factor 7 mRNA levels were measured by quantitative real-time PCR. Human Factor 7 primer probe set RTS 2927 was used to measure mRNA levels. Factor 7 mRNA levels were adjusted according to total RNA content, as measured by RIBOGREEN®. Results are presented as percent inhibition of Factor 7, relative to untreated control cells.
as §1, with “Cells were” for “The gapmers were also transfected via electroporation and their dose-dependent inhibition of human Factor 7 mRNA was measured. Cells were”, “in […]. After a” for “in Table 15. After a”, “cells and human Factor 7” for “cells and Factor 7”

In order of rising “percent inhibition of Factor 7 mRNA, relative to untreated control cells” value:
1. 422229 (antisense eA*eT*dG*d[5mC]*dA*dT*dG*dG*dT*dG*dA*dT*dG*d[5mC]*dT*eT*e[5mC]*eT*eG*eA) [compound 422229]  21%
2. 422252 (antisense e[5mC]*eG*d[5mC]*d[5mC]*dG*dG*d[5mC]*dT*d[5mC]*dT*dG*d[5mC]*dT*d[5mC]*dA*eT*e[5mC]*e[5mC]*e[5mC]*e[5mC]) [compound 422252]  23%

Same assay, conditions: 3.125 μM, approx. 16 hours (Table 16, Example 8 confirmation)

For “422229 (antisense eA*eT*dG*d[5mC]*dA*dT*dG*dG*dT*dG*dA*dT*dG*d[5mC]*dT*eT*e[5mC]*eT*eG*eA) [compound 422229]”, the “percent inhibition of Factor 7 mRNA, relative to untreated control cells” value was 30%.

Same assay, conditions: 6.25 μM, approx. 16 hours (Table 15, Example 7)

In order of falling “percent inhibition of Factor 7 mRNA, relative to untreated control cells” value:
1. 422229 (antisense eA*eT*dG*d[5mC]*dA*dT*dG*dG*dT*dG*dA*dT*dG*d[5mC]*dT*eT*e[5mC]*eT*eG*eA) [compound 422229]  30%
2. 422252 (antisense e[5mC]*eG*d[5mC]*d[5mC]*dG*dG*d[5mC]*dT*d[5mC]*dT*dG*d[5mC]*dT*d[5mC]*dA*eT*e[5mC]*e[5mC]*e[5mC]*e[5mC]) [compound 422252]  12%

Same assay, conditions: 6.25 μM, approx. 16 hours (Table 16, Example 8 confirmation)

In the case of “422229 (antisense eA*eT*dG*d[5mC]*dA*dT*dG*dG*dT*dG*dA*dT*dG*d[5mC]*dT*eT*e[5mC]*eT*eG*eA) [compound 422229]”, the “percent inhibition of Factor 7 mRNA, relative to untreated control cells” value is reported as 45%.

Same assay, conditions: 12.5 μM, approx. 16 hours (Table 15, Example 7)

In order of rising “percent inhibition of Factor 7 mRNA, relative to untreated control cells” value:
1. 422252 (antisense e[5mC]*eG*d[5mC]*d[5mC]*dG*dG*d[5mC]*dT*d[5mC]*dT*dG*d[5mC]*dT*d[5mC]*dA*eT*e[5mC]*e[5mC]*e[5mC]*e[5mC]) [compound 422252]  26%
2. 422229 (antisense eA*eT*dG*d[5mC]*dA*dT*dG*dG*dT*dG*dA*dT*dG*d[5mC]*dT*eT*e[5mC]*eT*eG*eA) [compound 422229]  33%

Same assay, conditions: 12.5 μM, approx. 16 hours (Table 16, Example 8 confirmation)

With “422229 (antisense eA*eT*dG*d[5mC]*dA*dT*dG*dG*dT*dG*dA*dT*dG*d[5mC]*dT*eT*e[5mC]*eT*eG*eA) [compound 422229]” the “percent inhibition of Factor 7 mRNA, relative to untreated control cells” value was 67%.

Same assay, conditions: 25 μM, approx. 16 hours (Table 15, Example 7)

In order of falling “percent inhibition of Factor 7 mRNA, relative to untreated control cells” value:
1. 422229 (antisense eA*eT*dG*d[5mC]*dA*dT*dG*dG*dT*dG*dA*dT*dG*d[5mC]*dT*eT*e[5mC]*eT*eG*eA) [compound 422229]  44%
2. 422252 (antisense e[5mC]*eG*d[5mC]*d[5mC]*dG*dG*d[5mC]*dT*d[5mC]*dT*dG*d[5mC]*dT*d[5mC]*dA*eT*e[5mC]*e[5mC]*e[5mC]*e[5mC]) [compound 422252]  38%

Same assay, conditions: 25 μM, approx. 16 hours (Table 16, Example 8 confirmation)

In the case of “422229 (antisense eA*eT*dG*d[5mC]*dA*dT*dG*dG*dT*dG*dA*dT*dG*d[5mC]*dT*eT*e[5mC]*eT*eG*eA) [compound 422229]”, the “percent inhibition of Factor 7 mRNA, relative to untreated control cells” value is reported as 79%.

Same assay, conditions: 50 μM, approx. 16 hours (Table 15, Example 7)

In order of rising “percent inhibition of Factor 7 mRNA, relative to untreated control cells” value:
1. 422252 (antisense e[5mC]*eG*d[5mC]*d[5mC]*dG*dG*d[5mC]*dT*d[5mC]*dT*dG*d[5mC]*dT*d[5mC]*dA*eT*e[5mC]*e[5mC]*e[5mC]*e[5mC]) [compound 422252]  58%
2. 422229 (antisense eA*eT*dG*d[5mC]*dA*dT*dG*dG*dT*dG*dA*dT*dG*d[5mC]*dT*eT*e[5mC]*eT*eG*eA) [compound 422229]  65%

Same assay, conditions: 50 μM, approx. 16 hours (Table 16, Example 8 confirmation)

In the case of “422229 (antisense eA*eT*dG*d[5mC]*dA*dT*dG*dG*dT*dG*dA*dT*dG*d[5mC]*dT*eT*e[5mC]*eT*eG*eA) [compound 422229]”, the “percent inhibition of Factor 7 mRNA, relative to untreated control cells” value is reported as 90%.

Same assay, conditions: 100 μM, approx. 16 hours (Table 15, Example 7)

In order of falling “percent inhibition of Factor 7 mRNA, relative to untreated control cells” value:
1. 422252 (antisense e[5mC]*eG*d[5mC]*d[5mC]*dG*dG*d[5mC]*dT*d[5mC]*dT*dG*d[5mC]*dT*d[5mC]*dA*eT*e[5mC]*e[5mC]*e[5mC]*e[5mC]) [compound 422252]  80%
2. 422229 (antisense eA*eT*dG*d[5mC]*dA*dT*dG*dG*dT*dG*dA*dT*dG*d[5mC]*dT*eT*e[5mC]*eT*eG*eA) [compound 422229]  77%

Same assay, conditions: 100 μM, approx. 16 hours (Table 16, Example 8 confirmation)

“422229 (antisense eA*eT*dG*d[5mC]*dA*dT*dG*dG*dT*dG*dA*dT*dG*d[5mC]*dT*eT*e[5mC]*eT*eG*eA) [compound 422229]” was tested, and the “percent inhibition of Factor 7 mRNA, relative to untreated control cells” value was 92%.

System: human Factor 7 mRNA
Assay: Dose-dependent antisense inhibition of human Factor 7 in HepB3 cells, lipofectin
Format: cell-based
Details: 3.125 nM, HepB3 cells, approx. 16 hours (Table 14)
Procedure, shortened: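 HepB3 cells (4,000/well) lipofectin-transfected with antisense oligonucleotide at 3.125 or 6.25 up to 100 nM for ~16 h. Factor 7 mRNA measured by real-time RT-PCR with primer probe set RTS 2927, adjusted to RIBOGREEN total RNA; expressed as percent inhibition versus untreated control cells.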

In order of rising “percent inhibition of Factor 7 mRNA, relative to untreated control cells” value:
1. 422252 (antisense e[5mC]*eG*d[5mC]*d[5mC]*dG*dG*d[5mC]*dT*d[5mC]*dT*dG*d[5mC]*dT*d[5mC]*dA*eT*e[5mC]*e[5mC]*e[5mC]*e[5mC]) [compound 422252]  18%
2. 422229 (antisense eA*eT*dG*d[5mC]*dA*dT*dG*dG*dT*dG*dA*dT*dG*d[5mC]*dT*eT*e[5mC]*eT*eG*eA) [compound 422229]  21%

Same assay, conditions: 12.5 nM, HepB3 cells, approx. 16 hours (Table 14)

In order of rising “percent inhibition of Factor 7 mRNA, relative to untreated control cells” value:
1. 422252 (antisense e[5mC]*eG*d[5mC]*d[5mC]*dG*dG*d[5mC]*dT*d[5mC]*dT*dG*d[5mC]*dT*d[5mC]*dA*eT*e[5mC]*e[5mC]*e[5mC]*e[5mC]) [compound 422252]  45%
2. 422229 (antisense eA*eT*dG*d[5mC]*dA*dT*dG*dG*dT*dG*dA*dT*dG*d[5mC]*dT*eT*e[5mC]*eT*eG*eA) [compound 422229]  53%

Same assay, conditions: 25 nM, HepB3 cells, approx. 16 hours (Table 14)

In order of falling “percent inhibition of Factor 7 mRNA, relative to untreated control cells” value:
1. 422229 (antisense eA*eT*dG*d[5mC]*dA*dT*dG*dG*dT*dG*dA*dT*dG*d[5mC]*dT*eT*e[5mC]*eT*eG*eA) [compound 422229]  72%
2. 422252 (antisense e[5mC]*eG*d[5mC]*d[5mC]*dG*dG*d[5mC]*dT*d[5mC]*dT*dG*d[5mC]*dT*d[5mC]*dA*eT*e[5mC]*e[5mC]*e[5mC]*e[5mC]) [compound 422252]  61%

Same assay, conditions: 50 nM, HepB3 cells, approx. 16 hours (Table 14)

In order of rising “percent inhibition of Factor 7 mRNA, relative to untreated control cells” value:
1. 422252 (antisense e[5mC]*eG*d[5mC]*d[5mC]*dG*dG*d[5mC]*dT*d[5mC]*dT*dG*d[5mC]*dT*d[5mC]*dA*eT*e[5mC]*e[5mC]*e[5mC]*e[5mC]) [compound 422252]  77%
2. 422229 (antisense eA*eT*dG*d[5mC]*dA*dT*dG*dG*dT*dG*dA*dT*dG*d[5mC]*dT*eT*e[5mC]*eT*eG*eA) [compound 422229]  86%

Same assay, conditions: 100 nM, HepB3 cells, approx. 16 hours (Table 14)

In order of rising “percent inhibition of Factor 7 mRNA, relative to untreated control cells” value:
1. 422252 (antisense e[5mC]*eG*d[5mC]*d[5mC]*dG*dG*d[5mC]*dT*d[5mC]*dT*dG*d[5mC]*dT*d[5mC]*dA*eT*e[5mC]*e[5mC]*e[5mC]*e[5mC]) [compound 422252]  87%
2. 422229 (antisense eA*eT*dG*d[5mC]*dA*dT*dG*dG*dT*dG*dA*dT*dG*d[5mC]*dT*eT*e[5mC]*eT*eG*eA) [compound 422229]  92%

Same assay, conditions: HepB3 cells, approx. 16 hours (Table 14)

In order of falling “percent inhibition of Factor 7 mRNA, relative to untreated control cells” value:
1. 422229 (antisense eA*eT*dG*d[5mC]*dA*dT*dG*dG*dT*dG*dA*dT*dG*d[5mC]*dT*eT*e[5mC]*eT*eG*eA) [compound 422229]  32%
2. 422252 (antisense e[5mC]*eG*d[5mC]*d[5mC]*dG*dG*d[5mC]*dT*d[5mC]*dT*dG*d[5mC]*dT*d[5mC]*dA*eT*e[5mC]*e[5mC]*e[5mC]*e[5mC]) [compound 422252]  17%

System: human Factor 7 mRNA
Assay: Antisense inhibition of human Factor 7 mRNA in HepB3 cells, 50 nM antisense oligonucleotide, lipofectin
Format: cell-based
Details: Table 13 (microwalk), 50 nM, lipofectin, approximately 24 hours
Procedure, shortened: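 Seeding density was 4,000 cells per well. Following roughly 24 hours of oligonucleotide treatment, RNA was extracted and Factor 7 message quantified using the RTS 2927 primer probe set. Levels were corrected for RIBOGREEN® total RNA and expressed against untreated controls.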

For “422229 (antisense eA*eT*dG*d[5mC]*dA*dT*dG*dG*dT*dG*dA*dT*dG*d[5mC]*dT*eT*e[5mC]*eT*eG*eA) [compound 422229]”, the “% Inhibition” value was 71%.

Same assay, conditions: oligonucleotides targeted to nucleobases 13760 to 13789 of SEQ ID NO: 1 (Table 10)

“422252 (antisense e[5mC]*eG*d[5mC]*d[5mC]*dG*dG*d[5mC]*dT*d[5mC]*dT*dG*d[5mC]*dT*d[5mC]*dA*eT*e[5mC]*e[5mC]*e[5mC]*e[5mC]) [compound 422252]” was tested, and the “% Inhibition (human Factor 7 mRNA levels)” value was 70%.
